Results on 2 compounds are retold here after ChEMBL document CHEMBL4418912, “Methods of identifying antagonists of the hTAS2R46 bitter taste receptor” (2014).

The structures appear in SMILES notation. Active and inactive are the calls of the source. The calls are words filed in the database; no cut-off is given here.

Type in all cases: functional, cell-based
The target of experiment [1] is T1, Taste receptor type 2 member 14 (Homo sapiens) (UniProt Q9NYV8).
T1 sequence (whole entry): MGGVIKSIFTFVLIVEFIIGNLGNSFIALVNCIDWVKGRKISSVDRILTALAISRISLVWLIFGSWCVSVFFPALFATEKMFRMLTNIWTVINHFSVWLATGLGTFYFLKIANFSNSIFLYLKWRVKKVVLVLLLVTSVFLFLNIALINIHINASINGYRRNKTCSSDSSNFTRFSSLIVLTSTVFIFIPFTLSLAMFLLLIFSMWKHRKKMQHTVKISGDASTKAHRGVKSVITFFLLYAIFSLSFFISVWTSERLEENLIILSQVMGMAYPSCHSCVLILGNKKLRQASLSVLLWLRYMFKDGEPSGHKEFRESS
Nature of the experiment: Agonist activity at recombinant human N-terminal rat ST3 receptor-fused TAS2R14 expressed in HEK293T cells co-expressing Galpha16gust44 assessed as increase in intracellular calcium level at 100 uM by FLIPR assay.

For experiment [2], the target named is T2, Taste receptor type 2 member 10 (Homo sapiens) (UniProt Q9NYW0).
T2 sequence (whole entry): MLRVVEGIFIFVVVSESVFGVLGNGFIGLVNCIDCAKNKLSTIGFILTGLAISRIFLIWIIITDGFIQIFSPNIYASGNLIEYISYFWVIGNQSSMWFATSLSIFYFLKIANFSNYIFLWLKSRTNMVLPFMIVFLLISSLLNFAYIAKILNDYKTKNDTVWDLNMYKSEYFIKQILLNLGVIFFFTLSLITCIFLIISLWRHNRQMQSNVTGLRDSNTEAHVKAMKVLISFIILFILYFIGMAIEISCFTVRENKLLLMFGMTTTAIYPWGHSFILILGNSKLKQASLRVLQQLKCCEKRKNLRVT
Description: Antagonist activity at recombinant human N-terminal rat ST3 receptor-fused TAS2R10 expressed in HEK293T cells co-expressing Galpha16gust44 assessed as inhibition of strychnine-induced increase in intracellular calcium level at 100 uM by FLIPR assay. For orientation: Calcium flux is commonly read through the fluorescence of an indicator in the cells.

In experiment [3] the target is T3, Taste receptor type 2 member 4 (Homo sapiens) (UniProt Q9NYW5).
T3 sequence (whole entry): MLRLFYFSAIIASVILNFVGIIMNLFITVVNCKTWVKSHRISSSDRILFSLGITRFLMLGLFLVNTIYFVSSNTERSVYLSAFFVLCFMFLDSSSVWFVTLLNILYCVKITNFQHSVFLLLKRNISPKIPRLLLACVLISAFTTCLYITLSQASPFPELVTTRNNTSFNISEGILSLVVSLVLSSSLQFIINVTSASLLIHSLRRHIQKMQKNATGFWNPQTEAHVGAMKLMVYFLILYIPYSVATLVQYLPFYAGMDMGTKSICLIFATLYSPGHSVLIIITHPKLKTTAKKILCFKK
Nature of the experiment: Antagonist activity at recombinant human N-terminal rat ST3 receptor-fused TAS2R4 expressed in HEK293T cells co-expressing Galpha16gust44 assessed as inhibition of colchicine-induced increase in intracellular calcium level at 100 uM by FLIPR assay.

In experiment [4] the target is T4, Taste receptor type 2 member 38 (Homo sapiens) (UniProt P59533).
T4 sequence (whole entry): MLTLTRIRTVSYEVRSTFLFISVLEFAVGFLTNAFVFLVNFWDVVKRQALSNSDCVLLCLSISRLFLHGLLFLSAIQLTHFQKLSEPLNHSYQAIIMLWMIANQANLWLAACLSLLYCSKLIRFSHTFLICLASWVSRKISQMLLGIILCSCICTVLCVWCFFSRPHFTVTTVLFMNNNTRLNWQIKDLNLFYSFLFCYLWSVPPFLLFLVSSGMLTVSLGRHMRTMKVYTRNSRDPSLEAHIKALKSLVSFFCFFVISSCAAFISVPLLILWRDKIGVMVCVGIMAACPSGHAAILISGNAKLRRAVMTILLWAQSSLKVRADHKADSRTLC
Description: Antagonist activity at recombinant human N-terminal rat ST3 receptor-fused TAS2R38 expressed in HEK293T cells co-expressing Galpha16gust44 assessed as inhibition of phenylthiocarbamide-induced increase in intracellular calcium level at 100 uM by FLIPR assay.

The target of experiment [5] is T1, Taste receptor type 2 member 14 (Homo sapiens). Nature of the experiment: Antagonist activity at recombinant human N-terminal rat ST3 receptor-fused TAS2R14 expressed in HEK293T cells co-expressing Galpha16gust44 assessed as inhibition of aristolochic acid-induced increase in intracellular calcium level at 100 uM by FLIPR assay.
For experiment [6], the target named is T5, Taste receptor type 2 member 13 (Homo sapiens) (UniProt Q9NYV9).
T5 sequence (whole entry): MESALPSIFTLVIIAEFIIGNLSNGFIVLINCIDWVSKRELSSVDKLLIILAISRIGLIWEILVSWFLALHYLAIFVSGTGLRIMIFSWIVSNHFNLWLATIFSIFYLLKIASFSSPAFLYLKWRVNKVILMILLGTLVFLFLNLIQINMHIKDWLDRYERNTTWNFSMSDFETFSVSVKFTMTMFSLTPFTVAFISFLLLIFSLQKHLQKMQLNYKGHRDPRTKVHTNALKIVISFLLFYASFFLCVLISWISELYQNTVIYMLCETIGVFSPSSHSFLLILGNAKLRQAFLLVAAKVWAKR
Description: Antagonist activity at recombinant human N-terminal rat ST3 receptor-fused TAS2R13 expressed in HEK293T cells co-expressing Galpha16gust44 assessed as inhibition of denatonium benzoate-induced increase in intracellular calcium level at 100 uM by FLIPR assay.

In experiment [7] the target is T6, Taste receptor type 2 member 20 (Homo sapiens) (UniProt P59543).
T6 sequence (whole entry): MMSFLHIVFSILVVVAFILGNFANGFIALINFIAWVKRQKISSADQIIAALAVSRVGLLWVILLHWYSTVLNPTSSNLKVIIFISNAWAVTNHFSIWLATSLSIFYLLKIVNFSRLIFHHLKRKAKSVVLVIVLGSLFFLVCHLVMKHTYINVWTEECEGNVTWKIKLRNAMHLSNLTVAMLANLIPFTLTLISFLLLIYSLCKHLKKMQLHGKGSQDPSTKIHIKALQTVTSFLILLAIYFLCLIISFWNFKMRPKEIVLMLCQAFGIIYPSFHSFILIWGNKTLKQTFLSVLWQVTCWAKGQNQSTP
Nature of the experiment: Antagonist activity at recombinant human N-terminal rat ST3 receptor-fused TAS2R49 expressed in HEK293T cells co-expressing Galpha16gust44 assessed as inhibition of cromolyn-induced increase in intracellular calcium level at 100 uM by FLIPR assay.

Turning to `C/C1=C\C[C@H](O)/C(C)=C/[C@H]2OC(=O)[C@@H](C)[C@@H]2CC1`, the result in experiment [1] was Active. Further, the inhibition result in experiment [2], in experiment [3], in experiment [4], in experiment [5], in experiment [6] and in experiment [7] was “inactive” in each case.

Turning to `C/C1=C\C[C@H](O)[C@@H](C)C[C@H]2OC(=O)[C@@H](C)[C@@H]2CC1`, the outcome in experiment [1] was Active. Moreover, the inhibition result in experiment [2], in experiment [3], in experiment [4], in experiment [5], in experiment [6] and in experiment [7] was “inactive” in each case.
